In assay [1] the target is Gamma-aminobutyric acid receptor subunit alpha-6/beta-3/gamma-2 (Rattus norvegicus) (UniProt P18508+P30191+P63079). Nature of the assay: Modulation of rat alpha6beta3gamma2 GABA A receptor expressed in Xenopus oocytes assessed as desensitization of GABA current at -80 mV holding potential at more than 300 uM by two-electrode voltage-clamp assay relative to control. It counts as cell-based. The following applies: filed as modulator.

The target in assay [2] is Gamma-aminobutyric acid receptor subunit alpha-6/beta-3/gamma-2 (Rattus norvegicus, UniProt P18508+P30191+P63079). Nature of the assay: Modulation of rat alpha6beta3gamma2 GABA A receptor expressed in Xenopus oocytes assessed as reduction in desensitization at -80 mV holding potential by two-electrode voltage-clamp assay. In kind it is cell-based.
Gamma-aminobutyric acid receptor subunit alpha-6/beta-3/gamma-2, sequence (P18508 whole entry): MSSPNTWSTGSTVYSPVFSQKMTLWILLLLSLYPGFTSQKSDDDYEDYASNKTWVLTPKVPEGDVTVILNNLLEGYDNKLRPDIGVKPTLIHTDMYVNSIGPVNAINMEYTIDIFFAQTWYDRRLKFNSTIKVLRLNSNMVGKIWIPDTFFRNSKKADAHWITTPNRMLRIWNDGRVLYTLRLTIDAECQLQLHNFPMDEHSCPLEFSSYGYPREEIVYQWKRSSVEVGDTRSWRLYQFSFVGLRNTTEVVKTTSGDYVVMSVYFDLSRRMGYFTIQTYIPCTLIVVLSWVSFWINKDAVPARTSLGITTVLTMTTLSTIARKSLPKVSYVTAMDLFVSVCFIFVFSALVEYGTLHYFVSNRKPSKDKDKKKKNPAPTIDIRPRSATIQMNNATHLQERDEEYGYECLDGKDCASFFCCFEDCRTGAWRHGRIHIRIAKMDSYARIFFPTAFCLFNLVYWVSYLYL
Gamma-aminobutyric acid receptor subunit alpha-6/beta-3/gamma-2, sequence (P30191 whole entry): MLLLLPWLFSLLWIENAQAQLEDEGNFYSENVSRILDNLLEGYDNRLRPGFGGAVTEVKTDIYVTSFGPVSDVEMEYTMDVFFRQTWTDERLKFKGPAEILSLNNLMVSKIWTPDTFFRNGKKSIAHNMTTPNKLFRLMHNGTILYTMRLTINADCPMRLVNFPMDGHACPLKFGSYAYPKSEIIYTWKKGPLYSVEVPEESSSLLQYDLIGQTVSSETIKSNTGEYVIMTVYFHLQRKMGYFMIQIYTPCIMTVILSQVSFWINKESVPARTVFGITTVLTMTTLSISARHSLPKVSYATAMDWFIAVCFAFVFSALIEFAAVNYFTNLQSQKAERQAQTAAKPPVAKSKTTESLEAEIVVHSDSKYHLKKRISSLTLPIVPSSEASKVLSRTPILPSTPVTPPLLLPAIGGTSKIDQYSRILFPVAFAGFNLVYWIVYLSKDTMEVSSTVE
Gamma-aminobutyric acid receptor subunit alpha-6/beta-3/gamma-2, sequence (P63079 whole entry): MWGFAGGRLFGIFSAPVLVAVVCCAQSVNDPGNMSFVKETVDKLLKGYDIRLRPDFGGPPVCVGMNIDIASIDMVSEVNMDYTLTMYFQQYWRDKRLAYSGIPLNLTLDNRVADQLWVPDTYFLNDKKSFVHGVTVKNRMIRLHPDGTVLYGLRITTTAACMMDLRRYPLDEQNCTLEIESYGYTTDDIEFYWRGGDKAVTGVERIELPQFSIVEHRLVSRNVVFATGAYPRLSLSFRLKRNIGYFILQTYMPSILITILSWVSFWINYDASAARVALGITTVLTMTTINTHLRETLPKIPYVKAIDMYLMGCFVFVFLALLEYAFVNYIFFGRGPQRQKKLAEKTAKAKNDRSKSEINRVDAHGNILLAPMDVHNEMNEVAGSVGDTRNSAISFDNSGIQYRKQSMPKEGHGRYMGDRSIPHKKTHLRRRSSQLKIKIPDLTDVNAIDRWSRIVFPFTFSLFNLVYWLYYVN

In the case of `Cc1ccc(C(C)(C)CC#N)c(Cl)c1`, the Activity in assay [1] was 1360%. In addition, the EC50 in assay [2] was found to be 28 µM.
As for `Cc1ccc(C(C)CC#N)c(Cl)c1` (racemic), in assay [1], the Activity amounted to 600%. Besides, the EC50 in assay [2] turned out to be 38 µM.
In the same order, the values of `Cl/C(=C\n1cncn1)c1ccc(Cl)cc1Cl` [LORECLEZOLE] are 600% and 38 µM.

(Values after ChEMBL document CHEMBL5247619, “Novel alpha6 preferring GABA-A receptor ligands based on loreclezole” (Eur J Med Chem, 2022).)
